One series relates to immunitary systems. As to the kind of experiment: Test of Rosettes to sheep red corpuscles. The format is in vivo. The following applies: Rattus norvegicus, Splenocyte; 3 month old male rats, oral daily from day -1 to day 1; splenocytes after 7 days; read-out: immunostimulating dose (dose which multiplies by 2 the percentage of rosettes observed in the control animals). The procedure:
The administration to animals of a product capable of stimulating the immunitary systems leads to an increase of their capacity of reaction to the injection of a immunogenic product. 3 month old male rats were sensitized by intraperitoneal administration of sheep erythrocytoes on day 0 and 7 days later, the spleen was removed and splenocytes were placed in contact with sheep erythrocytes. The percentage of leucocytes around which the erythrocytes were in the form of rosettes was determined. The test compounds were orally administered daily from day-1 to day 1 and immunostimulating dose is the dose of product which multiplies by 2 the percentage of rosettes observed in the control animals.

The test system of another series is mice. As to the kind of experiment: Acute toxicity. The format is in vivo. The note with it: oral.

Structures can show the parent of a compound that is named as a salt.

On to `CC(=O)[C@H]1CC[C@H]2[C@@H]3CC=C4C[C@H](NC(=O)[C@H](C)N)CC[C@]4(C)[C@H]3CC[C@]12C` [Example 3, (2S)-2-amino-N-(20-oxopregn-5-ene 3α-yl)propionamide hydrochloride], for which, in the series with immunitary systems, the ED (2-fold rosettes) was determined as 2 mg/kg. Also, the “LD0 (maximum dose which did not cause any mortality after 8 days)” value with mice is reported as greater than 400 mg/kg.

Take `CC(=O)[C@H]1CC[C@H]2[C@@H]3CC=C4C[C@H](NC(=O)CN)CC[C@]4(C)[C@H]3CC[C@]12C` [Example 4, 2-amino N-(20 oxopregn-5-ene 3α-yl) acetamide hydrochloride]: in the series with immunitary systems, the ED (2-fold rosettes) stood at 5 mg/kg. In the series with mice, the “LD0 (maximum dose which did not cause any mortality after 8 days)” value amounted to 600 mg/kg.

Consider `C[C@H](O)[C@H]1CC[C@H]2[C@@H]3CC=C4C[C@H](NC(=O)CN)CC[C@]4(C)[C@H]3CC[C@]12C.Cl` [Example 6, 2-amino-N-[(20S) 20-hydroxy-pregn-5-ene-3α-yl]-acetamide hydrochloride], for which, in the series on mice, the “LD0 (maximum dose which did not cause any mortality after 8 days)” value is greater than 400 mg/kg.

The values are drawn from patent US4444767A, “Derivatives of 3-amino-pregn-5-ene” (Roussel Uclaf, priority 1981, dated 1984).
